“And” between values parts separate entries of the source, which are not always exact repeats. Identical values can stand only once. Like-named read-outs stand apart in the source and are kept apart here.
Tests used:
human GST = target: T1, human GST (Homo sapiens, UniProt P08263); test: GST inhibition assay (CDNB); format: biochemical; conditions: 6-point 1–50 µM
T1 construct: The open reading frames encoding PfGST, PbGST, and hGST were gene-synthesized; TEV cleavage site (C); Avitag (C); purchased InterRayBio, LLC; host or cells: E. coli BL21 (DE3)
T1 sequence (P08263 1-222): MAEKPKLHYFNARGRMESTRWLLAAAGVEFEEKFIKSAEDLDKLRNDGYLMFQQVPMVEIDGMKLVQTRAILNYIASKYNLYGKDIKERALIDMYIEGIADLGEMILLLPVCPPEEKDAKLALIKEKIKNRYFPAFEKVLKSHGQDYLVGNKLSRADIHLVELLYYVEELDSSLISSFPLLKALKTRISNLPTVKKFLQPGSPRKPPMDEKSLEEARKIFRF
Description: (§1) Enzymatic activities of recombinant GSTs were determined spectrophotometrically using the chromogenic substrate 1-chloro-2,4-dinitrobenzene (CDNB). Recombinant GST (0.35 mg/mL) was mixed with 1 mM CDNB in 100 mM HEPES. Stock solutions (10 mM) of the CB compounds and hemin were prepared in 100% dimethyl sulfoxide (DMSO) and then diluted at 0.5% DMSO ([14]). Each inhibitor has six concentrations ranging from 1 to 50 µM. The reaction was initiated with 1 mM glutathione (GSH) after 15 minutes. Absorbance change at 340 nm was measured for 1 hour. The slope was converted to micromole per minute using Beer’s equation and the extinction coefficient for the product S-(2,4-dinitrophenyl)glutathione (ε340 nm = 9.6 mM^–1 cm^–1) ([14]). The assay was validated using human placenta GST (#G8642) as a positive control.

[1] = target: T2, recombinant P. falciparum GST (Plasmodium falciparum, UniProt Q8ILQ7); test: GST inhibition assay (CDNB); format: biochemical; conditions: 6-point 1–50 µM
T2 construct: The open reading frames encoding PfGST, PbGST, and hGST were gene-synthesized; TEV cleavage site (C); Avitag (C); purchased InterRayBio, LLC; host or cells: E. coli BL21 (DE3)
T2 sequence (Q8ILQ7 1-211): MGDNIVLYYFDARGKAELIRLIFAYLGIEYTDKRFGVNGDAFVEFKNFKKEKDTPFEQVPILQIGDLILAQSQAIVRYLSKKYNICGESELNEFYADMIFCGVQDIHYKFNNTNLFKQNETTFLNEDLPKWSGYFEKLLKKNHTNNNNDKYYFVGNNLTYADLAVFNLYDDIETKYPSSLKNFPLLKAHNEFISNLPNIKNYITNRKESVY
Description: as §1

[2] = system: recombinant P. berghei GST; test: GST inhibition assay (CDNB); format: biochemical, Plasmodium berghei; conditions: 6-point 1–50 µM
Description: as §1

[3] = system: P. cynomolgi hypnozoites and hepatic schizonts; test: P. cynomolgi liver-stage inhibition assay; format: cell-based, Plasmodium cynomolgi; conditions: Plasmodium cynomolgi, prophylactic drug treatment mode
Description: (§2) Primary primate hepatocytes were seeded in 384-well plates and used within 2–4 days ([56]). P. cynomolgi B strain parasites were inoculated and developed into hypnozoites and schizonts. CB compounds were tested in 8-point, threefold serial dilutions (100 µM to […]) for both prophylactic (4 days starting with sporozoite addition) and radical cure (4 days starting day 4 post-inoculation) modalities ([56][–][60]). The Operetta CLS imaging system and Harmony Software 4.9 (Perkin Elmer, Waltham, MA, USA) analyzed the plates, and the percentage of inhibition (PI) was calculated in Python using equation (1), where parasitic quantities (hypnozoite and schizont counts) were normalized to the negative control ([57]). Each plate included negative (DMSO) and positive (KDU691, maduramicin, tafenoquine) controls ([58]). IC50 values were determined using an 8-point, threefold dilution format and a Python-adapted grid algorithm for fitting PI to a four-parameter logistic function ([61]).
PI = 100 ∗(1−(xy/Meanneg))

[4] = system: primary primate hepatocytes; test: hepatocyte toxicity in the P. cynomolgi liver-stage assay; format: cell-based
Description: as §2

[5] = system: P. falciparum oocyst formation in Anopheles stephensi mosquitoes; test: P. falciparum oocyst inhibition assay (SMFA); format: in vivo, Plasmodium falciparum; conditions: for Mean oocyst # excluding zeros (Range): P. falciparum midgut infection in An. stephensi mosquitoes; for Median (oocysts) / Median I % / Prevalence % / Prevalence I %: pooled from two representative experiments; for oocyst formation inhibition: 1 to 10 µM, midguts dissected 8 days after feeding
Description: As previously described, P. falciparum infections were performed using SMFA with NF54 gametocyte cultures diluted to 0.3% stage V gametocytemia ([62]). Infected blood (O+ human 45% hematocrit in serum) was offered to mosquitoes for 30 minutes, and engorged mosquitoes were maintained on a 10% corn syrup solution supplemented by four concentrations of CB compounds (1, 2.5, 5, and 10 µM) at […] ([63]), with DMSO serving as a control. Eight days post-infection, mosquito midguts were dissected and stained with 0.2% mercurochrome for 30 minutes, and oocysts were quantified under a light microscope ([63]).

[6] = system: P. berghei ookinete development (Ookluc parasites); test: P. berghei ookinete luciferase inhibition assay; format: cell-based, Plasmodium berghei; conditions: Plasmodium berghei, 24 h, 24 hours at 19°C, luminescence; read-out: IC50 (ookinete development)
Description: Mice were pretreated with phenylhydrazine [6 mg/mL, intraperitoneal injection (IP)] 3 days before intravenous injection (IV) infection with P. berghei Ookluc parasites ([19], [62]). Once parasitemia exceeded 15%, the mice received PYR (1 mg/mL, IP) ([19], [62]). Twenty-four hours after PYR treatment, infected mice were assessed for at least 10 exflagellations before blood was collected by heart puncture ([19], [62]). Infected blood (1:20 dilution) was incubated with 8-point serial dilutions (2.5–75 µM) of CB compounds for 24 hours at 19°C with gentle shaking ([62], [64]). Relative luminescence units (RLU) of mature ookinetes were measured using the Promega Nano-Glo Luciferase Assay System Kit and a SpectraMax M3 Microplate Reader (Molecular Devices, San Jose, CA, USA) after 3 minutes. Giemsa blood smears confirmed ookinetes.

[7] = 1 μM compound, infection prevalence in mosquitoes
[8] = 1 μM, single experiments, read-out: % inhibition (mean)
[9] = 2.5 μM compound, infection prevalence in mosquitoes
[10] = 5 μM compound, infection prevalence in mosquitoes
[11] = 5 μM, single experiments, read-out: % inhibition (mean)
[12] = 10 μM compound, infection prevalence in mosquitoes
[13] = 10 μM compound, oocyst number vs DMSO control, read-out: % inhibition (mean)
[14] = 10 μM compound, oocyst number vs DMSO control, read-out: % inhibition (median)
[15] = 10 μM compound, vs DMSO control, read-out: % inhibition (prevalence)

O=C(NN=Cc1ccccc1O)c1cc(-c2ccccc2)nc2ccccc12 [CB-53]
GST inhibition (human GST): did not inhibit | GST inhibition [1]: did not inhibit | GST inhibition [2]: did not inhibit | IC50 ([3]; read-out: Hypnozoite IC50): > 10 µM | IC50 ([3]; read-out: Schizont IC50): > 10 µM | IC50 ([3]; read-out: Total parasite IC50): > 10 µM | Toxicity [4]: >10 µM | Median oocyst # ([5]; 1 μM compound): 1 | Mean oocyst # excluding zeros (Range) ([5]; 1 μM compound): 36 (0-125) | Prevalence [5, 7]: 59 | inhibition at 1 µM ([5]; 1 μM compound, oocyst number vs DMSO control, read-out: % inhibition (mean)): 5% | inhibition at 1 µM ([5]; 1 μM compound, oocyst number vs DMSO control, read-out: % inhibition (median)): 83% | inhibition at 1 µM ([5]; 1 μM compound, vs DMSO control, read-out: % inhibition (prevalence)): 32% | Median (oocysts) ([5]; 1 µM): 1 | Median I % ([5]; 1 µM): 83% | Prevalence % ([5]; 1 µM): 59% | Prevalence I % ([5]; 1 µM): 32% | inhibition at 1 µM [5, 8]: 36% | Median oocyst # ([5]; 2.5 μM compound): 1 | Mean oocyst # excluding zeros (Range) ([5]; 2.5 μM compound): 29 (0-115) | Prevalence [5, 9]: 60 | inhibition at 2.5 µM ([5]; 2.5 μM compound, oocyst number vs DMSO control, read-out: % inhibition (mean)): 22% | inhibition at 2.5 µM ([5]; 2.5 μM compound, oocyst number vs DMSO control, read-out: % inhibition (median)): 83% | inhibition at 2.5 µM ([5]; 2.5 μM compound, vs DMSO control, read-out: % inhibition (prevalence)): 31% | Median (oocysts) ([5]; 2.5 µM): 1 | Median I % ([5]; 2.5 µM): 83% | Prevalence % ([5]; 2.5 µM): 60% | Prevalence I % ([5]; 2.5 µM): 31% | Prevalence ([5]; 2.5 μM, single experiments): 67 and 91 and 47 and 70 | inhibition at 2.5 µM ([5]; 2.5 μM, single experiments, read-out: % inhibition (mean)): 37% | Median oocyst # ([5]; 5 μM compound): 0 | Mean oocyst # excluding zeros (Range) ([5]; 5 μM compound): 26 (0-83) | Prevalence [5, 10]: 48 | inhibition at 5 µM ([5]; 5 μM compound, oocyst number vs DMSO control, read-out: % inhibition (mean)): 44% | inhibition at 5 µM ([5]; 5 μM compound, vs DMSO control, read-out: % inhibition (prevalence)): 44% | Median (oocysts) ([5]; 5 µM): 0 | Median I % ([5]; 5 µM): 100% | Prevalence % ([5]; 5 µM): 48% | Prevalence I % ([5]; 5 µM): 44% | % inhibition (mean) ([5]; 5 μM, single experiments): 23% | inhibition at 5 µM [5, 11]: 24% | Median oocyst # ([5]; 10 μM compound): 1 | Mean oocyst # excluding zeros (Range) ([5]; 10 μM compound): 28 (0-129) | Prevalence [5, 12]: 58 | inhibition at 10 µM [5, 13]: 28% | inhibition at 10 µM [5, 14]: 83% | inhibition at 10 µM [5, 15]: 33% | Median (oocysts) ([5]; 10 µM): 1 | Median I % ([5]; 10 µM): 83% | Prevalence % ([5]; 10 µM): 58% | Prevalence I % ([5]; 10 µM): 33% | oocyst formation inhibition [5]: inhibit the development of oocysts | IC50 [6]: 14.7 µM

COc1cccc(/C=N/NC(=O)c2cc(-c3ccccc3)nc3ccccc23)c1O [CB-58]
GST inhibition (human GST): did not inhibit | GST inhibition [1]: did not inhibit | GST inhibition [2]: did not inhibit | IC50 ([3]; read-out: Hypnozoite IC50): > 10 µM | IC50 ([3]; read-out: Schizont IC50): > 10 µM | IC50 ([3]; read-out: Total parasite IC50): > 10 µM | Toxicity [4]: >10 µM | Median oocyst # ([5]; 1 μM compound): 6 | Mean oocyst # excluding zeros (Range) ([5]; 1 μM compound): 19 (0-95) | Prevalence [5, 7]: 76 | Median (oocysts) ([5]; 1 µM): 6 | Prevalence % ([5]; 1 µM): 75% | % inhibition (prevalence) ([5]; 1 μM, single experiments): 1% | Prevalence ([5]; 1 μM, single experiments): 69 and 82 and 83 | inhibition at 1 µM [5, 8]: 5% | inhibition at 1 µM ([5]; 1 μM, single experiments, read-out: % inhibition (median)): 23% | Median oocyst # ([5]; 2.5 μM compound): 7 | Mean oocyst # excluding zeros (Range) ([5]; 2.5 μM compound): 26 (0-103) | Prevalence [5, 9]: 72 | Median (oocysts) ([5]; 2.5 µM): 7 | Prevalence % ([5]; 2.5 µM): 72% | % inhibition (prevalence) ([5]; 2.5 μM, single experiments): 1% | Prevalence ([5]; 2.5 μM, single experiments): 66 and 79 and 87 | Median oocyst # ([5]; 5 μM compound): 6 | Mean oocyst # excluding zeros (Range) ([5]; 5 μM compound): 14 (0-70) | Prevalence [5, 10]: 87 | Median (oocysts) ([5]; 5 µM): 6 | Prevalence % ([5]; 5 µM): 87% | Prevalence ([5]; 5 μM, single experiments): 96 and 83 and 69 | inhibition at 5 µM [5, 11]: 10% | inhibition at 5 µM ([5]; 5 μM, single experiments, read-out: % inhibition (median)): 26% | Median oocyst # ([5]; 10 μM compound): 3 | Mean oocyst # excluding zeros (Range) ([5]; 10 μM compound): 17 (0-93) | Prevalence [5, 12]: 57 | inhibition at 10 µM [5, 13]: 10% | inhibition at 10 µM [5, 14]: 50% | inhibition at 10 µM [5, 15]: 19% | Median (oocysts) ([5]; 10 µM): 3 | Median I % ([5]; 10 µM): 50% | Prevalence % ([5]; 10 µM): 57% | Prevalence I % ([5]; 10 µM): 19% | % inhibition (prevalence) ([5]; 10 μM, single experiments): 15% | inhibition at 10 µM ([5]; 10 μM, single experiments, read-out: % inhibition (mean)): 30% | inhibition at 10 µM ([5]; 10 μM, single experiments, read-out: % inhibition (prevalence)): 30% | oocyst formation inhibition [5]: did not inhibit oocyst formation | IC50 [6]: 32.5 µM

Source: PMC11620517, “Novel hydrazone compounds with broad-spectrum antiplasmodial activity and synergistic interactions with antimalarial drugs” (Antimicrobial Agents and Chemotherapy, 2024)
